Consider 4 compounds from patent US4370326A, “Cephem compounds and composition” (Fujisawa Pharmaceutical Co., Ltd., priority 1977, dated 1983).

SMILES strings stand for the structures. ≈ marks a conversion by molar mass, not a printed value.

Common to all, as to experiment: In vitro antibacterial activity, two-fold agar-plate dilution method
Holding throughout (type): cell-based

The test system of experiment [1] is Klebsiella aerogenes 417. The note with it: heart infusion agar, 37° C., 20 hours, 10^8 viable cells per ml, read-out: minimal inhibitory concentration (MIC). As to the method:
(§1) In vitro antibacterial activity was determined by the two-fold agar-plate dilution method as described below. One loopful of an overnight culture of each test strain in Trypticase-soy broth (10^8 viable cells per ml.) was streaked on heart infusion agar (HI-agar) containing graded concentrations of antibiotics, and the minimal inhibitory concentration (MIC) was expressed in terms of μg/ml. after incubation at 37° C. for 20 hours. [drawing 15]

The subject of experiment [2] is Proteus vulgaris 616. To be noted: heart infusion agar, 37° C., 20 hours, 10^8 viable cells per ml, read-out: minimal inhibitory concentration (MIC). As to the method: as §1
The subject of experiment [3] is Escherichia coli 324. To be noted: heart infusion agar, 37° C., 20 hours, 10^8 viable cells per ml, read-out: minimal inhibitory concentration (MIC). As to the method:
as §1

Experiment [4] concerns Salmonella enteritidis. The note with it: Salmonella enterica, heart infusion agar, 37° C., 20 hours, 10^8 viable cells per ml, read-out: minimal inhibitory concentration (MIC). As for the experimental part:
as §1

Experiment [5] relates to Proteus mirabilis 520. The note with it: heart infusion agar, 37° C., 20 hours, 10^8 viable cells per ml, read-out: minimal inhibitory concentration (MIC). As to the method:
as §1

With `Nc1nc(C(=O)C(=O)NC2C(=O)N3C(C(=O)O)=CCSC23)cs1` (centres unmarked) [Compound 1], the MIC in experiment [1] amounted to 0.1 µg/mL (≈ 0.282 µM); in experiment [2], 12.5 µg/mL (≈ 35.3 µM); in experiment [3] it was 1.56 µg/mL (≈ 4.4 µM); in experiment [4], 1.56 µg/mL (≈ 4.4 µM); in experiment [5], 0.78 µg/mL (≈ 2.2 µM).

Consider `Nc1nc(CC(=O)NC2C(=O)N3C(C(=O)O)=CCSC23)cs1` (centres unmarked) [Compound 2], for which the MIC in experiment [1] is 0.2 µg/mL (≈ 0.588 µM); in experiment [2] it was 6.25 µg/mL (≈ 18.4 µM); in experiment [3] it was 1.56 µg/mL (≈ 4.58 µM); in experiment [4] it was 1.56 µg/mL (≈ 4.58 µM); in experiment [5], 0.39 µg/mL (≈ 1.15 µM).

`Nc1nc(C(N)C(=O)NC2C(=O)N3C(C(=O)O)=CCSC23)cs1` (centres unmarked) [Compound 3]: the MIC is 0.39 µg/mL (≈ 1.1 µM) in experiment [1]; 1.56 µg/mL (≈ 4.39 µM) in experiment [2]; 0.78 µg/mL (≈ 2.19 µM) in experiment [3]; 3.13 µg/mL (≈ 8.81 µM) in experiment [4]; 0.78 µg/mL (≈ 2.19 µM) in experiment [5].

For the compound `Nc1nc(C(O)C(=O)NC2C(=O)N3C(C(=O)O)=CCSC23)cs1` (centres unmarked) [Compound 4], the MIC in experiment [1] was 0.78 µg/mL (≈ 2.19 µM); in experiment [2], 12.5 µg/mL (≈ 35.1 µM); in experiment [3] it was 1.56 µg/mL (≈ 4.38 µM); in experiment [4] it was 3.13 µg/mL (≈ 8.78 µM); in experiment [5] it was 1.56 µg/mL (≈ 4.38 µM).
